Experimental findings from US8647867B2, “Cell cultivation method and cell culture” (National University Corportion Okayama University, priority 2005, dated 2014) are described below.

In the series the test system is porcine hepatocyte. In words: Morphological study of cultured porcine hepatocyte by phase-contrast and electron microscope. The class given is cell-based. On the procedure: Recently, it has been known that when three-dimensional culture of cells is performed on scaffold, cell functions are improved and maintained. […]

Regarding `CC(=O)N[C@@H](CCCNC(=N)N)C(=O)N[C@@H](C)C(=O)N[C@@H](CC(=O)O)C(=O)N[C@@H](C)C(=O)N[C@@H](CCCNC(=N)N)C(=O)N[C@@H](C)C(=O)N[C@@H](CC(=O)O)C(=O)N[C@@H](C)C(=O)N[C@@H](CCCNC(=N)N)C(=O)N[C@@H](C)C(=O)N[C@@H](CC(=O)O)C(=O)N[C@@H](C)C(=O)N[C@@H](CCCNC(=N)N)C(=O)N[C@@H](C)C(=O)N[C@@H](CC(=O)O)C(=O)N[C@@H](C)C(N)=O` [Group A, Ac-(RADA)4-CONH2], the “formation of cell adhesion apparatus and bile canaliculi between hepatocytes” value (culture with insert, day 3 of culture, transmission electron microscope) is “a cell adhesion apparatus 5 and a bile canaliculi 6 were formed between hepatocytes”. Moreover, where the note is “culture without insert, phase-contrast microscope days 1, 7, 14, electron microscope day 5”, the “formation of three-dimensional spheroid by hepatocytes” value was “formation of three-dimensional spheroid by hepatocytes was confirmed”.
